In patent publication US20120202794A1 (priority 2011, published 2012):

Experiments:
HCV Replicon 1b = test: HCV inhibition assay, HCV replicon 1b (Clone A or ET-lunet cells; RT-PCR or luciferase reporter); type: cell-based; details: Hepatitis C virus, 96 h, HCV replicon 1b; 4 days incubation; read-out: Replicon 1b potency EC90
Protocol: HCV inhibition assay. Clone A or ET-lunet cells were seeded at a density of 1500 or 3000 cells per well in a 96-well plate, respectively. Test compounds serially diluted in culture medium without G418 were added to cells so that the final DMSO concentration was 0.5%. Plates were incubated at 37° C. in a 5% CO2 atmosphere for 4 days. Inhibition of HCV RNA replication was determined by real time PCR (RT-PCR) or by measuring the levels of luminescence expressed via the luciferase reporter gene encoded within the ET replicon. Briefly, for the RT-PCR assay, total RNA was extracted using the RNeasy-96 kit as recommended by the manufacturer (Qiagen, Valencia, Calif.), reversed transcribed into cDNA, and amplified using primer and probe mix for HCV 5′-NTR RNA and human ribosomal RNA (rRNA) in a one-step RT-PCR reaction as described previously (50). A relative quantification method was used to determine the extent of inhibition. The threshold cycle (Ct) of rRNA was subtracted from the Ct of HCV RNA (ΔCt). The average ΔCt of the DMSO cell controls was then subtracted from the ΔCt of the compound treated sample (ΔΔCt). Percent inhibition was determined by using the following equation: %=(1−(2^−ΔΔC^t))×100. For the luciferase-based replicon assay, luminescence was measured by using a Victor3 plate reader (Perkin-Elmer, Boston, Mass.) following the addition of Bright-Glo reagent as recommended by the manufacturer (Promega, Madison, Wis.). Percent inhibition of HCV replication was determined by comparing the change in luminescence of the drug treated wells versus the DMSO cell controls. EC50 and EC90 values, the concentrations at which 50% and 90% inhibition were achieved, were determined using the GraphPad Prism software (San Diego, Calif.).

[1] = Cell cytotoxicity assay (MTS), CC90 as reported in Table 1, cell line not stated; type: cell-based; details: human; cell line not given
Protocol: Cell cytotoxicity assays. Each compound (serially diluted from 100 μM) was added to Huh7 (2×10^3 cells/well), HepG2 (2×10^3 cells/well), BxPC3 (2×10^3 cells/well), or CEM (5×10^3 cells/well) cells and allowed to incubate for 8 days at 37° C. A medium only control was used to determine the minimum absorbance value […]. At the end of the growth period, MTS dye from the CellTiter 96 Aqueous One Solution Cell Proliferation Assay kit (Promega) was added to each well and the plate was incubated for an additional 2 hours. The absorbance at 490 nm was read with a Victor3 plate reader (Perkin Elmer) using the medium only control wells as blanks. The 90% inhibition value (CC90) was determined by comparing the absorbance in wells containing cells and test compound to untreated cell control wells.

Compound | EC90 (HCV Replicon 1b) [µM] | CC90 at 8 days [1] [µM]
CC(C)C[C@H]1CN(C(=O)c2cc(-c3ccccc3)on2)[C@@H](CC(C)C)C(=O)N1 [Compound 108] | 0.52 | > 10
CC(C)C[C@H]1CN(C(=O)c2cc(-c3cccs3)on2)[C@@H](CC(C)C)C(=O)N1 [Compound 109] | 0.54 | > 10
CC(C)C[C@H]1C(=O)N[C@@H](c2ccccc2)CN1C(=O)c1cc(-c2cccs2)on1 [Compound 110] | 0.59 | > 10
CC(C)C[C@H]1C(=O)N[C@@H](C(C)C)CN1C(=O)c1cc(-c2cccs2)on1 [Compound 111] | 0.8 | > 10
CC(C)C[C@H]1CN(C(=O)c2cc(-c3ccc(Cl)s3)on2)[C@@H](CC(C)C)C(=O)N1 [Compound 112] | 0.95 | > 10
CC(C)C[C@H]1CN(C(=O)C#Cc2ccc(F)cc2)[C@@H](CC(C)C)C(=O)N1 [Compound 113] | 3.4 | > 10
CC(C)C[C@H]1CN(C(=O)C#Cc2ccccc2)[C@@H](CC(C)C)C(=O)N1 [Compound 114] | 4.08 | > 10
Cc1ccc(C#CC(=O)N2C[C@H](CC(C)C)NC(=O)[C@@H]2CC(C)C)cc1 [Compound 115] | 5.01 | > 10
CC(C)C[C@H]1CN(C(=O)C#Cc2ccc(F)c(F)c2)[C@@H](CC(C)C)C(=O)N1 [Compound 116] | 9.65 | > 10
CC(C)C[C@H]1CN(C(=O)C#Cc2ccc(F)cc2F)[C@@H](CC(C)C)C(=O)N1 [Compound 117] | 2.66 | > 10
COc1ccc(C#CC(=O)N2C[C@H](CC(C)C)NC(=O)[C@@H]2CC(C)C)cc1 [Compound 118] | 2.96 | > 10
CC(C)C[C@H]1CN(C(=O)C#Cc2ccc(Cl)cc2F)[C@@H](CC(C)C)C(=O)N1 [Compound 119] | 6.2 | > 10
CC(C)C[C@H]1CN(C(=O)C#Cc2ccc(Cl)cc2)[C@@H](CC(C)C)C(=O)N1 [Compound 120] | 9.16 | > 10
CC(C)C[C@H]1CN(C(=O)C#Cc2cc(F)c(F)c(F)c2)[C@@H](CC(C)C)C(=O)N1 [Compound 121] | 3.23 | > 10
CC(C)C[C@H]1CN(C(=O)C#Cc2ccc(C(F)(F)F)cc2)[C@@H](CC(C)C)C(=O)N1 [Compound 122] | 7.54 | > 10
CC(C)C[C@H]1CN(C(=O)c2cc(-c3ccc(F)c(F)c3)on2)[C@@H](CC(C)C)C(=O)N1 [Compound 123] | 0.97 | > 10
CC(C)C[C@H]1CN(C(=O)c2cc(-c3ccc(F)cc3)on2)[C@@H](CC(C)C)C(=O)N1 [Compound 124] | 0.11 | > 10
CC(C)C[C@H]1CN(C(=O)c2cc(-c3ccc(Cl)cc3)on2)[C@@H](CC(C)C)C(=O)N1 [Compound 125] | 0.26 | > 10
Cc1ccc(-c2cc(C(=O)N3C[C@H](CC(C)C)NC(=O)[C@@H]3CC(C)C)no2)cc1 [Compound 126] | 1.66 | > 10
COc1ccc(-c2cc(C(=O)N3C[C@H](CC(C)C)NC(=O)[C@@H]3CC(C)C)no2)cc1 [Compound 127] | 1.14 | > 10
CC(C)C[C@H]1CN(C(=O)c2cc(-c3cccc(F)c3)on2)[C@@H](CC(C)C)C(=O)N1 [Compound 128] | 0.84 | > 10
CC(C)C[C@H]1CN(C(=O)c2cc(-c3cccc(Cl)c3)on2)[C@@H](CC(C)C)C(=O)N1 [Compound 129] | 2.93 | > 10
COc1cccc(-c2cc(C(=O)N3C[C@H](CC(C)C)NC(=O)[C@@H]3CC(C)C)no2)c1 [Compound 130] | 5.75 | > 10
COc1ccccc1-c1cc(C(=O)N2C[C@H](CC(C)C)NC(=O)[C@@H]2CC(C)C)no1 [Compound 131] | 3.49 | > 10
